# Assay results taken from US20250381307A1, “RETRO-AAV AND USE IN TREATING NEURODEGENERATIVE DISEASES” (priority 2023, published 2025).
# Columns and labels:
# [1] = biological target: T1, hM3Dq (Homo sapiens, UniProt P20309, A239G/Y149C); assay: Rotation behavior and nigral c-Fos in mice after unilateral nigral AAV8R12-G88P3-HA-hM3Dq and CNO; format: in vivo, C57BL/6J mice; parameters: host or cells: AAV8R12-transduced neurons (striatal D1-MSNs, some SNr neurons) of mice and macaques; settings: for rotation behavior (FIG. 6C): control vector AAV8R12-G88P3-EYFP, n=5
# T1 sequence (P20309 whole entry Y149C/A239G): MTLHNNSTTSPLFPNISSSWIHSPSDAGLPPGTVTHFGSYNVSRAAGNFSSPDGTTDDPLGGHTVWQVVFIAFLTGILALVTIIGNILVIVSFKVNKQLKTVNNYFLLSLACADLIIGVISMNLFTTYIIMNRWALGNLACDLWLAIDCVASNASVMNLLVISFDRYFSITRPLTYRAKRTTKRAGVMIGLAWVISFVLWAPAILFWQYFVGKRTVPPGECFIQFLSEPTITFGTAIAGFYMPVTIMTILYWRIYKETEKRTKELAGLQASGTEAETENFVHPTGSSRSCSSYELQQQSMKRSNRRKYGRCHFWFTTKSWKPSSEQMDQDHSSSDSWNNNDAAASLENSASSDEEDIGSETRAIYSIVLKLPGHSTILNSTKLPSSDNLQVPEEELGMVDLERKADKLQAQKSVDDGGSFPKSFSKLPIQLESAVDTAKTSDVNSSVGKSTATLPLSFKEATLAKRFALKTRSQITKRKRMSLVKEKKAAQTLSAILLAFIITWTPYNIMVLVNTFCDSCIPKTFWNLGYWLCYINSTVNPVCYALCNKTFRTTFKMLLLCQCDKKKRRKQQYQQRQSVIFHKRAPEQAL
# Description: Mice were anesthetized with sodium pentobarbital (Nembutal; 80 mg/kg, i.p.), and then placed into a stereotaxic device (KOPF). Eye cream was applied on both corneas to avoid dehydration. The skull above the targeted areas was thinned with a dental drill and carefully removed. Injections were conducted with a 10 μL syringe connected to a 33-Gauge needle (Neuros; Hamilton), using a microsyringe pump (Legato 130, KD Scientific). A total volume of 200 nL virus was injected into the SNr at a speed of 20 nL/min. The coordinates for the SNr were 3.4 mm posterior, 1.3 mm lateral, 4.8 mm ventral to the bregma.
# Mice that were used in the behavioral experiments were then implanted with guide cannulas (KOPF) unilaterally aiming at the dorsomedial striatum (0.5 mm anterior, 1.5 mm lateral, 3.5 mm ventral to the bregma). The cannulas were fixed to the skull with dental cement. Stainless steel obturators were inserted into the guide cannulas and were replaced every other day to maintain the patency until infusions were made. Mice were allowed to recover from the surgery for at least 3 weeks before further studies.
# Mice were individually handled for 10-20 seconds per day for at least 5 days to habituate them to the experimenter. The open field test was conducted in a test apparatus (50 cm×50 cm×50 cm) with an HD digital camera (Sony) positioned above the arena. On day one, mice were habituated to the apparatus for 10 minutes. On day 2, mice were administrated saline (0.1 mL i.p. or 200 nL intracranially [i.e.] through the guide cannulas). On day 3, mice were administrated with Clozapine-N-oxide (CNO, Hello Bio, HB1807; 0.3 mg/kg i.p. or 200 nL at 100 μM i.e.). All behavioral tests were conducted 30 minutes after injection. During the test, mice were allowed to freely explore the apparatus for 10 minutes. The behavioral data were analyzed with ANY-maze software (Stoelting Co.).
# [2] = biological target: T2, rM3Ds (Rattus norvegicus, UniProt P08483, A177S/A238G/A489L/DEL261-437/DEL441-478/E258S/I253V/I483M/INS256[…]/K178L/K182A/K255R/K484R/K486H/L173F/L482A/M480V/R171S/R176Q/R179M/S481M/T174R/T181R/T257A/Y148C); assay: In vivo electrophysiological recording in caudate/putamen of MPP+ lesioned macaques; parameters: rM3Ds; 2A-EYFP (C); host or cells: AAV8R12-transduced striatal D1-MSNs of mice and cynomolgus macaques (in vivo and acute slices)
# T2 sequence (P08483 with tags, fused parts or gaps Y148C/R171S/L173F/T174R/R176Q/A177S/K178L/R179M/T181R/K182A/A238G/I253V/K255R/INS256[…]/T257A/E258S/DEL261-437/DEL441-478/M480V/S481M/L482A/I483M/K484R/K486H/A489L): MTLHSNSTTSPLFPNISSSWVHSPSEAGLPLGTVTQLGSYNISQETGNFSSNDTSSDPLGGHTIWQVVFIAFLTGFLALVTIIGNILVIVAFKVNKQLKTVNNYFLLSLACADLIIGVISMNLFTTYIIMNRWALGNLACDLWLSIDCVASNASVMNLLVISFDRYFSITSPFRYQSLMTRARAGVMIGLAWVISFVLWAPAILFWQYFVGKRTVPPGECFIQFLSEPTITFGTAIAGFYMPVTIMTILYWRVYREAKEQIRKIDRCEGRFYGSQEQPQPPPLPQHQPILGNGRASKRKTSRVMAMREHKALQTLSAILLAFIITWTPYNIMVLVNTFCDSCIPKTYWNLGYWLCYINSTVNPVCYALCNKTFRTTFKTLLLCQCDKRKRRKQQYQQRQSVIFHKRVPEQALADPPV
# Description: (§1) Electrophysiological recording was performed through a recording chamber while the monkey was anesthetized. Neural responses were recorded by a 16-channel linear probe (Plexon Inc, Uprobe) driven by a mechanical microdrive (Alpha Omega, FlexMT). Signals were passed through a head stage (Plexon Inc, HST/16V-G20 LN) and then split and filtered between 300 Hz and 5 kHz to identify spiking activity with an amplifier system (Plexon Inc, OmniPlex). Detected spikes were then sorted by commercially available software (Plexon Inc, Offline Sorter) for further analysis. To quantify the effect of CNO/DCZ injection, neural activity was recorded for 60 minutes following CNO/DCZ injection. The response time-course for each channel was obtained by counting the spikes within every 10-minute window and then normalizing to the maximal.
# (§2) To determine the effect of CNO/DCZ injection on the direction of signal change, we performed Pearson correlation between neural responses and time using the ‘corr’ function in Matlab, which generates the correlation coefficient ‘r’ and significant level ‘p’. A neuron was considered to have “Increased” activity when r>0 and p<0.05; and considered to have “Decreased” activity when r<0 and p<0.05. Otherwise, neurons were considered to be “Unchanged” in their neural activities. The responses of all increased neurons were then averaged after being normalized by the maximal response (Crowe et al., 2014; Dai and Wang, 2018; Hirokawa et al., 2019) following CNO/DCZ injection, and then plotted as a function of time to generate the normalized population response.
# [3] = biological target: T1, hM3Dq; assay: In vivo electrophysiological recording in caudate, hM3Dq macaques, CNO infusion into dorsomedial caudate; parameters: host or cells: AAV8R12-transduced neurons (striatal D1-MSNs, some SNr neurons) of mice and macaques
# Description: as §1, §2
smiles,measurement,setting,value
"C[N+]1([O-])CCN(C2=Nc3cc(Cl)ccc3Nc3ccccc32)CC1 [CNO, clozapine N-oxide]",rotations (FIG. 6A; ipsiversive rotations induced),"[1]; CNO i.p., AAV8R12-G88P3-HA-hM3Dq, n=8 mice, mean±SEM, saline 45.25±4.128",87.84±4.666
same,rotation behavior (FIG. 6C),"[1]; CNO i.p., saline 47.08±10.5",44.72±10.89
same,rotations (FIG. 6A; contraversive rotations induced),"[1]; CNO intracranial into dorsomedial striatum, AAV8R12-G88P3-HA-hM3Dq, n=8, saline 49.63±5.879",15.08±3.435
same,nigral c-Fos+ cells,"[1]; CNO intracranial, hM3Dq",No significant changes in the number of nigral c-Fos+ cells
same,rotation behavior (FIG. 6C),"[1]; CNO intracranial, saline 54.22±8.766",61.39±5.774
same,c-Fos+ cells in the right SNr,"[1]; CNO intraperitoneal, hM3Dq",significant increase in c-Fos+ cells
same,caudate/putamen cells activated (FIG. 15G),"[2]; CNO 36 cells, DCZ 31 cells, saline 17.9%",52.8%
same,caudate/putamen cells inactivated (FIG. 15G),[2]; saline 33.4%,13.9%
same,caudate/putamen cells unchanged (FIG. 15G),[2]; saline 48.7%,33.3%
same,caudate cells activated (FIG. 12L),"[3]; 34 total cells, saline 18.8%",67.6%
same,caudate cells inactivated (FIG. 12L),"[3]; 34 total cells, saline 40.6%",2.9%
same,caudate cells unchanged (FIG. 12L),"[3]; 34 total cells, saline 40.6%",29.4%
same,caudate cells activated (FIG. 12C),"[3]; monkey CM045, 34 cells",70.6%
same,caudate cells inactivated (FIG. 12C),"[3]; monkey CM045, 34 cells",8.8%
same,caudate cells unchanged (FIG. 12C),"[3]; monkey CM045, 34 cells",20.6%
